The values below come from patent publication US9498455B2, “Cinacalcet and neuroblastic tumours” (HOSPITAL SAINT JOAN DE DEU, priority 2012, dated 2016).

Test [1] concerns SK-N-LP cells with overexpression of CASR. The experiment in a line: CASR activation by calcium after serum deprivation, SK-N-LP cells with overexpression of CASR. Format: cell-based. Here is the method:
(§1) Wild type SK-N-LP cells stably transfected with pCMV-GFP or pCMV-CASR-GFP (1×10^6) in RPMI 10% FBS were seeded in P100 plates. The medium was substituted the next day with a serum-free medium (calcium-free DMEM supplemented with 0.2% bovine albumin, 4 mM L-glutamine and 0.5 mM CaCl2). This was maintained for 16 hours before substituting it with the same medium supplemented or not supplemented with up to 3 mM CaCl2. […] In the latter cell lines, indications of cell death were detected, but the cells continued to proliferate until reaching confluence, whereas cells with overexpression of CASR completely disappeared in 5 days.
In order to determine if the cell death process occurred by means of apoptosis, total proteins of wild type SK-N-LP cells (WT) and cells with overexpression of CASR (CASR) were extracted 24 and 48 hours after exposure to this model. The proteins were subjected to SDS-PAGE gel electrophoresis, transferred to a nitrocellulose membrane and incubated with specific antibodies to detect activated caspase 3 and c-PARP (Cell Signaling). Suitable secondary antibodies labeled with peroxidase were used, and it was developed with the Amersham ECL system.

The test system of test [2] is wild type SK-N-LP cells. The experiment in a line: CASR activation by calcium after serum deprivation, wild type or pCMV-GFP SK-N-LP cells. It counts as cell-based. The note with it: 3 mM CaCl2 after 16 hours serum deprivation; wild type or pCMV-GFP transfected. Here is the method:
as §1

Test [3] deals with LAN-1. Kind of test: Cell viability (MTS) after 72 hours, LAN-1 neuroblastoma cell line. Format: cell-based. To be noted: LAN1, LAN-1, 72 hours, no unit in table, tested concentrations given in μM, read-out: IC50 (drug concentration causing the death of 50% of the cells with respect to the control). Here is the method:
(§2) 5×10^3 cells of each cell line (LAN-1, SK-N-BE(2)c, LA1-55n, LA1-5s, SK-N-LP, SK-N-JD, SK-N-AS) were seeded in 96-well plates (6 replicates per condition). The initial medium (RPMI 10% FBS) was removed the next day and substituted with the same medium containing several concentrations (100 μM, 65 μM, 30 μM, 25 μM, 20 μM, 15 μM, 10 μM, 5 μM, 3 μM, 1 μM, 0.3 μM) of cinacalcet (Selleck Biochemicals) or NPS R-568 (Tocris) or equivalent amounts of DMSO (Sigma-Aldrich). Cell viability was evaluated after 72 hours by means of quantifying the percentage of viable cells by means of the Promega CellTiter 96(r) Aqueous One Solution Cell Proliferation Assay (MTS) system. It was thus observed that both drugs induced a decrease in cell viability in the 7 cell lines examined (FIG. 2), and that in 5 of said cell lines the IC50 (drug concentration causing the death of 50% of the cells with respect to the control) of cinacalcet was less than that of NPS R-568 in a statistically significant manner (Table 1). In the case of SK-N-AS and LA1-55n cell lines, the difference in the effect promoted by both drugs was not statistically significant (Table 1).

Test [4] relates to SK-N-BE(2)C. The experiment in a line: Cell viability (MTS) after 72 hours, SK-N-BE(2)c neuroblastoma cell line. It counts as cell-based. The note with it: no unit in table, tested concentrations given in μM, read-out: IC50 (drug concentration causing the death of 50% of the cells with respect to the control). Here is the method:
as §2

The subject of test [5] is Xenografts of LAN-1 cell line. The experiment in a line: In vivo model of neuroblastoma, LAN-1 xenografts, morphological examination. Also on record: species or system athymic nu/nu mice. The note with it: LAN-1 xenograft, oral 100 mg/kg 6 days a week from day 12, sacrificed after 40 days. Here is the method: (§3) Xenografts of LAN-1 and SK-N-LP cell lines were generated for which aliquots containing 10×10^6 cells from said cell lines were inoculated subcutaneously in 4-6 week old female athymic nu/nu mice (Charles Rivers). Starting from day 12, when the forming tumor could already be measured using Vernier calipers, oral treatment was started 6 days a week with cinacalcet 100 mg/kg (FIGS. 3C-3F) and with the carrier as a negative control (FIGS. 3A and 3B). The tumor volume was measured every 2-3 days. The mice were sacrificed after 40 days. Each tumor was weighed before being sectioned into two halves: one half was frozen in liquid nitrogen for expression analysis and the other half was fixed and embedded in paraffin for morphological examination and immunohistochemical analyses.

Test [6] deals with SK-N-AS. The experiment in a line: Cell viability (MTS) after 72 hours, SK-N-AS neuroblastoma cell line. Format: cell-based. To be noted: Homo sapiens, no unit in table, tested concentrations given in μM, read-out: IC50 (drug concentration causing the death of 50% of the cells with respect to the control). Here is the method: as §2
The subject of test [7] is LA1-55n. The experiment in a line: Cell viability (MTS) after 72 hours, LA1-55n neuroblastoma cell line. The note with it: no unit in table, tested concentrations given in μM, read-out: IC50 (drug concentration causing the death of 50% of the cells with respect to the control). Format: cell-based. Here is the method: as §2
Test [8] deals with Xenografts of SK-N-LP cell line. Kind of test: In vivo model of neuroblastoma, SK-N-LP xenografts, morphological examination. Also on record: species or system athymic nu/nu mice. The note with it: SK-N-LP xenograft, oral 100 mg/kg 6 days a week from day 12, sacrificed after 40 days. Here is the method:
as §3

Test [9] concerns LA1-5s. The experiment in a line: Cell viability (MTS) after 72 hours, LA1-5s neuroblastoma cell line. Format: cell-based. To be noted: no unit in table, tested concentrations given in μM, read-out: IC50 (drug concentration causing the death of 50% of the cells with respect to the control). Here is the method: as §2
Test [10] relates to SK-N-LP. Kind of test: Cell viability (MTS) after 72 hours, SK-N-LP neuroblastoma cell line. It counts as cell-based. The note with it: no unit in table, tested concentrations given in μM, read-out: IC50 (drug concentration causing the death of 50% of the cells with respect to the control). Here is the method: as §2
Test [11] has as its system SK-N-JD. The experiment in a line: Cell viability (MTS) after 72 hours, SK-N-JD neuroblastoma cell line. The note with it: no unit in table, tested concentrations given in μM, read-out: IC50 (drug concentration causing the death of 50% of the cells with respect to the control). It counts as cell-based. Here is the method: as §2

Consider `[Ca+2].[Cl-].[Cl-]` [CaCl2], for which the “Cell death (morphology)” value in [1] (3 mM CaCl2 after 16 hours serum deprivation) is recorded as “suffered cell death”; in test [2], “hardly appreciable”. Moreover, in test [1] (24 and 48 hours after exposure to 3 mM CaCl2 model), the “Caspase 3 activation and PARP cleavage (Western blot)” value was “accompanied by caspase 3 activation and PARP cleavage”.
For `C[C@@H](NCCCc1cccc(C(F)(F)F)c1)c1cccc2ccccc12` [Cinacalcet, cinacalcet], the IC50 turned out to be 17.2 µM in [3]; 10.7 µM in [4]; 10.3 µM in test [6]; 10.5 µM in test [7]; 16.7 µM in [9]; 10.3 µM in test [10]. In addition, the IC50 in test [11] came to 10.9 µM. Also, the “Morphological analysis of the xenografts: cell death” value in test [5] and in [8] was “large areas with necrosis and/or apoptosis” each time. For the same compound, the “Morphological analysis of the xenografts: differentiation” value in [5] and in test [8] was “morphological signs of differentiation in viable cells” each time.
For the compound `COc1cccc([C@@H](C)NCCCc2ccccc2Cl)c1` [NPS R-568], the IC50 was 24.8 µM in test [3]; 16.6 µM in [4]; 15.1 µM in [6]; 11.4 µM in [7]; 34.5 µM in test [9]; 22.4 µM in test [10]. Besides, in test [11], the IC50 amounted to 25.8 µM.
